Consider two molecules from US11066421B1, “Synthetic cinchona alkaloids against cancer” (Ares Pharmaceuticals, LLC, priority 2021, dated 2021).

The subject of test [1] is M24-MET human melanoma cells. Briefly: CB.17 SCID mouse xenograft model of human malignant melanoma. Conditions: 5 mg/kg i.p. twice daily, 5 days on 2 days off. The test is classed as in vivo. As for the experimental part: Cell Lines. Human melanoma cell line M24-MET (ATCC CRL-12270) was obtained from American Type Culture Collection (Rockville, Md.) and maintained as a continuous cell line in DMEM supplemented with 10% fetal calf serum (FCS), 4 mm glutamine, 100 units/ml penicillin G, and […] streptomycin sulfate. All of the tissue culture reagents were obtained from Life Technologies, Inc. Inc. (Gaithersburg, Md.).
Mice. Female CB.17 SCID mice were obtained from Taconic (Germantown, N.Y.) and housed in a specific-pathogen-free room located in a secure indoor facility with controlled temperature, humidity, and noise levels. Mice were housed in micro-isolator cages and fed with autoclaved rodent chow. Water was also autoclaved and supplemented with trimethoprim/sulfamethoxazol 3 days a week. […]
SCID Mouse Model of Human Malignant Melanoma. […] The size of subcutaneous tumors were measured on day 14 and day 16 to evaluate the ability of AP-1 to inhibit tumor growth in this SCID mouse xenograft model of melanoma. Tumor volumes were calculated using the formula for the volume of a prolate spheroid, V=4/3×3.14×length/2×width/2×depth/2.

The test system of test [2] is mammary tumors of MMTV/neu transgenic mice. Briefly: MMTV/neu transgenic mouse model of HER2+ breast cancer. The test is classed as in vivo. Conditions: 9-week observation; AP-8 2 mg/kg i.p. twice daily; paclitaxel 6.7 mg/kg; gemcitabine 33.7 mg/kg. From the text: The predictive value of genetically engineered mouse (GEM) models to predict the clinical effectiveness of anti-cancer drugs is well established (Richmond A, Su Y. Mouse xenograft models vs GEM models for human cancer therapeutics. Dis Model Mech. 2008; 1(2-3):78-82. doi:10.1241-2/dmm.0.000976). We used the transgenic mouse model of HER2+ chemotherapy-resistant breast cancer to examine the in vivo anti-cancer activity of AP-8. Overexpression of the wild type Neu in the mammary glands of transgenic mice induces metastatic breast cancer. Accordingly, in the MMTV/Neu transgenic strain, the wild-type neu is overexpressed in the mammary gland under the control of the MMTV long terminal repeat. This animal model has been used to analyze the efficacy of new therapeutic approaches to prevent or treat Her2/neu overexpressing malignancies (Uckun, Dibirdik). MMTV/Neu transgenic mice [FVB/N-TgN(MMTV/neu)202MUL; Jackson Laboratory, Bar Harbor, Me.] were bred to produce multiple litters in a controlled SPF environment (12 h light/12 h-dark photoperiod, 22±1° C., 60±10% relative humidity). All mice were housed in microisolator cages (Lab Products, Inc., Maywood, N.Y., USA) containing autoclaved bedding in a controlled specific pathogen-free (SPF) environment (12 h light/12 h-dark photoperiod, 22±1° C., 60±10% relative humidity). Animal studies were approved by the institutional Animal Care and Use Committee of Drug Discovery Enterprises and all animal care procedures conformed to the Guide for the Care and Use of Laboratory Animals of the National Research Council. The genotype of mice was confirmed by multiplex polymerase chain reaction (PCR) tests as previously reported (F. M. Uckun et al., 2007, Bioorganic Med. Chem. 15:800-14; I. Dibirdik et al., 2010, J Nanomed and Nanotechnol. 1:001-4).
Neu transgenic mice carrying one or more tumors were randomly placed in the study. For the evaluation of tumor kinetics, tumor-bearing mice were randomly assigned to either vehicle control or treatment groups. Tumor growth was determined by the measurement of tumors with a caliper in three dimensions three days a week and expressed as tumor volume in cubic millimeters (mm^3). Tumor volumes were calculated using the formula for the volume of a prolate spheroid, V=4/3×3.14×length/2×width/2×depth/2. Due to the large heterogeneity in transgenic tumor volumes on day 0, tumor growth for each mouse was normalized to the starting volume for that particular tumor. Therefore, each mouse also served as its own control, and the tumor growth curves were generated to show the rate of change in tumor volumes.
AP-8 (50 μg˜2 mg/kg in 50 μL DMSO as vehicle) (10 mice, 12 target mammary tumors, Initial average tumor volume=787±125 mm^3) was administered by twice daily intraperitoneal injections on 5 consecutive days per week. Paclitaxel (10 mice, 13 target mammary tumors, Initial average tumor volume=554±79 mm^3) was administered intraperitoneally on days 1, 3, and 5 of each week at a dose level of 6.7 mg/kg ([…]). Gemcitabine (13 mice, 18 target mammary tumors, Initial average tumor volume=549±60 mm^3) was administered intraperitoneally on days 1 and 8 every 4 weeks at a dose level of 33.7 mg/kg (˜1 g/m^2). Control mice (8 mice, 10 mammary tumors, Initial average tumor volume=293±61 mm^3) were treated by twice daily intraperitoneal injections of vehicle alone (50 μL DMSO) on 5 consecutive days per week. […]

For the molecule `C=CC1CN2CCC1CC2C(Oc1cc(OC(c2ccnc3ccccc23)C2CC3CCN2CC3C=C)nc(OC(c2ccnc3ccccc23)C2CC3CCN2CC3C=C)n1)c1ccnc2ccccc12` (stereo not drawn) [AP-1, 2,4,6-Tri(9-O-cinchoninyl)pyrimidine], the tumor progression entry in test [1] is listed as “significantly slowed down the tumor progression”. Further, the average tumor volume in test [1] (day 16, from day 7) amounted to 484.3±76.5 mm3.
For `CCC1CN2CCC1CC2C(Oc1cc(OC(c2ccnc3ccc(OC)cc23)C2CC3CCN2CC3CC)nc(OC(c2ccnc3ccc(OC)cc23)C2CC3CCN2CC3CC)n1)c1ccnc2ccc(OC)cc12` (stereo not drawn) [AP-8, 2,4,6-Tri (9-O-dihydroquinidinyl)pyrimidine], the “tumor shrinkage and tumor growth” value in test [2] is “caused shrinkage of the tumor, completely arrested the tumor growth for 4 weeks, and markedly delayed the tumor progression between 4 weeks and 9 weeks”.
